# Data from the Kinase Knowledgebase extract (Sharma et al. 2016).
# Biological target: CDK2 (human) (UniProt P24941)
# Assay: Enzyme Assay
row,Ki,SMILES
1,< 1000 nM,O=c1[nH][nH]c2ccc(-c3nnc(C4CCCCC4)c(Nc4n[nH]c5ccc(F)cc45)n3)c(C(F)(F)F)c12
2,< 1000 nM,O=c1[nH][nH]c2ccc(-c3nc(Nc4n[nH]c5ccccc45)cc(-c4cnc[nH]4)n3)c(C(F)(F)F)c12
3,< 1000 nM,O=c1[nH][nH]c2ccc(C3CCCC(Nc4ccccn4)C3)cc12 (stereo not drawn)
4,< 1000 nM,O=c1[nH][nH]c2cc(OC(CCNc3nccnn3)Cc3ccccc3)ccc12 (stereo not drawn)
5,< 1000 nM,O=c1[nH][nH]c2cc(Nc3nc(Nc4cc(C5CC5)[nH]n4)c4cc(Cl)ccc4n3)ccc12
6,< 1000 nM,O=c1[nH][nH]c2cc(Cl)c(-c3cc4ncccc4c(Nc4n[nH]c5ccccc45)n3)cc12
7,< 1000 nM,O=c1[nH][nH]c2cc(OC3COCC(Nc4ccccn4)C3)ccc12 (stereo not drawn)
8,< 1000 nM,CN(C)c1nc(Nc2ccc3c(=O)[nH][nH]c3c2)nc(Nc2cc(C3CC3)[nH]n2)n1
9,< 1000 nM,O=c1[nH][nH]c2cc(Sc3nc(Nc4cc[nH]n4)c4ccccc4n3)ccc12
10,< 1000 nM,O=c1[nH][nH]c2ccc(-c3nc(Nc4n[nH]c(-c5ccccc5)c4-c4ccccc4)c4ccccc4n3)c(C(F)(F)F)c12
11,< 1000 nM,O=c1[nH][nH]c2cc(OC3CCCC(Nc4cc(C5CC5)[nH]n4)C3)ccc12 (stereo not drawn)
12,< 1000 nM,Cc1cnc(NCCCSc2ccc3c(=O)[nH][nH]c3c2)s1
13,< 1000 nM,O=c1[nH][nH]c2cc(Oc3nc(Nc4cc(C5CC5)[nH]n4)c4ccccc4n3)ccc12
14,< 1000 nM,Cc1cnc(NC2COCC(Oc3ccc4c(=O)[nH][nH]c4c3)C2)s1 (stereo not drawn)
15,< 1000 nM,O=C(CC(=O)Nc1nccnn1)Cc1ccc2c(=O)[nH][nH]c2c1
16,< 1000 nM,CC(=O)N1CCC(c2cc(Nc3n[nH]c4ccccc34)nc(-c3ccc4[nH][nH]c(=O)c4c3C(F)(F)F)n2)CC1

row,Ki,SMILES
1,< 1000 nM,Cc1cnc(NC(=O)CC(=O)Oc2ccc3c(=O)[nH][nH]c3c2)s1
2,< 1000 nM,O=c1[nH][nH]c2cc(Nc3nc(Nc4cc(C5CC5)[nH]n4)c4ccc(Cl)cc4n3)ccc12
3,< 1000 nM,Cn1cnc(NC2CCC(c3ccc4[nH][nH]c(=O)c4c3)C2)c1 (stereo not drawn)
4,< 1000 nM,Cc1cc(Nc2nc(Sc3ccc4c(=O)[nH][nH]c4c3)nc3c(OCCCN(C)C)cccc23)n[nH]1
5,< 1000 nM,O=c1[nH][nH]c2cc(C(F)(F)F)c(-c3cc4cccnc4c(Nc4nc[nH]n4)n3)cc12
6,< 1000 nM,Cc1cc(Nc2cc(N3CCN(C)CC3)nc(Oc3ccc4c(=O)[nH][nH]c4c3)n2)n[nH]1
7,< 1000 nM,O=C(CCOc1ccc2c(=O)[nH][nH]c2c1)Nc1ccccn1
8,< 1000 nM,O=c1[nH][nH]c2ccc(Nc3nc(Nc4cc(C5CC5)[nH]n4)c4ccccc4n3)cc12
9,< 1000 nM,O=c1[nH][nH]c2cc(Oc3nc(Nc4cc(C5CC5)[nH]n4)cc(-c4ccccc4)n3)ccc12
10,< 1000 nM,O=c1[nH][nH]c2ccc(-c3cc4ccccc4c(Nc4n[nH]c5c(F)cc(F)cc45)n3)c(C(F)(F)F)c12
11,< 1000 nM,O=c1[nH][nH]c2cc(Nc3ncc(Nc4ccccc4)c(Nc4cc(C5CC5)[nH]n4)n3)ccc12
12,< 1000 nM,Cc1cc(Nc2nc(Cc3ccc4c(=O)[nH][nH]c4c3)nc3c2CCN(Cc2ccccc2)C3)n[nH]1
13,< 1000 nM,Cc1cnc(NC2CCC(c3ccc4[nH][nH]c(=O)c4c3)C2)s1 (stereo not drawn)
14,< 1000 nM,O=C(CC(=O)Nc1ccccn1)Cc1ccc2c(=O)[nH][nH]c2c1
15,< 1000 nM,O=c1[nH][nH]c2cc(OCCCNc3ccccn3)ccc12

# Continued, compound first:
row,SMILES,Ki
1,Cc1nc(Sc2ccc3c(=O)[nH][nH]c3c2)nc(Nc2cc(C3CC3)[nH]n2)c1C,< 1000 nM
2,O=c1[nH][nH]c2ccc(-c3nnc(C4CC4)c(Nc4n[nH]c5ccccc45)n3)c(C(F)(F)F)c12,< 1000 nM
3,Cc1cc(Nc2cc(-c3c(C)cccc3C)nc(Oc3ccc4c(=O)[nH][nH]c4c3)n2)n[nH]1,< 1000 nM
4,O=c1[nH][nH]c2cc(CSc3cc(Nc4n[nH]c5ccccc45)c4ccccc4n3)ccc12,< 1000 nM
5,Cn1cnc(NC2CCCC(C(C)(C)c3ccc4c(=O)[nH][nH]c4c3)C2)c1 (stereo not drawn),< 1000 nM
6,O=c1[nH][nH]c2cc([C@@H]3C[C@H]3c3nc(Nc4n[nH]c5c(F)cccc45)c4ccccc4n3)ccc12,< 1000 nM
7,Cc1cc(Nc2cccc(Sc3ccc4c(=O)[nH][nH]c4c3)n2)n[nH]1,< 1000 nM
8,Cn1cnc(NC2CCCC2COc2ccc3c(=O)[nH][nH]c3c2)c1 (stereo not drawn),< 1000 nM
9,O=c1[nH][nH]c2cc(Oc3cccc(Nc4n[nH]c5ccccc45)n3)ccc12,< 1000 nM
10,CC(=O)Nc1ccc(Sc2cc(Nc3cc(C)[nH]n3)nc(-c3ccc4[nH][nH]c(=O)c4c3)n2)cc1,< 1000 nM
11,Cn1cnc(NC(=O)CCSc2ccc3c(=O)[nH][nH]c3c2)c1,< 1000 nM
12,Cc1nc(Nc2ccc3c(=O)[nH][nH]c3c2)nc(Nc2cc(C3CC3)[nH]n2)n1,< 1000 nM
13,O=c1[nH][nH]c2cc(C(F)(F)F)c(-c3cc(Nc4n[nH]c5ccccc45)cc(C4CCCCC4)n3)cc12,< 1000 nM
14,O=c1[nH][nH]c2cc(Oc3cc(Nc4cc(C5CC5)[nH]n4)c4ccccc4n3)ccc12,< 1000 nM
15,Cc1cc(Nc2cc(C)[nH]n2)nc(COc2ccc3[nH][nH]c(=O)c3c2)n1,< 1000 nM
16,O=c1[nH][nH]c2cc(C(F)(F)F)c(-c3nc(Nc4n[nH]c5c(F)cc(F)cc45)c4cnsc4n3)cc12,< 1000 nM
17,Cc1ccc2nc(Nc3ccc4c(=O)[nH][nH]c4c3)nc(Nc3cc(C)[nH]n3)c2n1,< 1000 nM
18,O=c1[nH][nH]c2cc(NC3CCC(Nc4nccnn4)C3)ccc12 (stereo not drawn),< 1000 nM
19,Cc1cc(Nc2nc(Nc3ccc4c(=O)[nH][nH]c4c3)nc3c2CCN(Cc2ccccc2)C3)n[nH]1,< 1000 nM
20,Cc1cc(Nc2cccc(Oc3ccc4c(=O)[nH][nH]c4c3)n2)n[nH]1,< 1000 nM
21,Cn1cnc(NC(=O)CCOc2ccc3c(=O)[nH][nH]c3c2)c1,< 1000 nM
22,O=c1[nH][nH]c2cc(OCCONc3cc(C4CC4)[nH]n3)ccc12,< 1000 nM
23,O=C(CCCc1ccc2c(=O)[nH][nH]c2c1)Nc1cc(C2CC2)[nH]n1,< 1000 nM

row,SMILES,Ki
1,Cc1cc(Nc2cc(C)[nH]n2)nc(Cc2ccc3c(=O)[nH][nH]c3c2)n1,< 1000 nM
2,O=C(CC(=O)Oc1ccc2c(=O)[nH][nH]c2c1)Nc1nccnn1,< 1000 nM
3,Cc1cc(Nc2cc(-c3ccccc3)nc(Sc3ccc4c(=O)[nH][nH]c4c3)n2)n[nH]1,< 1000 nM
4,COCc1cc(Nc2nc(-c3ccc4[nH][nH]c(=O)c4c3C(F)(F)F)nc3ccccc23)n[nH]1,< 1000 nM
5,Cc1cc(Nc2nc(Cc3ccc4c(=O)[nH][nH]c4c3)nc3c2CCCC3)n[nH]1,< 1000 nM
6,Cc1cnc(CC2CCCC2CCc2ccc3c(=O)[nH][nH]c3c2)s1 (stereo not drawn),< 1000 nM
7,Cc1nc(-c2cc3c(=O)[nH][nH]c3cc2Cl)cc(Nc2n[nH]c3ccc(F)cc23)c1C,< 1000 nM
8,COCCNc1cc(Nc2cc(C)[nH]n2)nc(SCc2ccc3[nH][nH]c(=O)c3c2)n1,< 1000 nM
9,Cn1cnc(NCCC(Cc2ccccc2)Sc2ccc3c(=O)[nH][nH]c3c2)c1 (stereo not drawn),< 1000 nM
10,O=c1[nH][nH]c2cc(Oc3cc4ccccc4c(Nc4n[nH]c5ccccc45)n3)ccc12,< 1000 nM
11,O=c1[nH][nH]c2cc(CC(CCNc3nccnn3)Cc3ccccc3)ccc12 (stereo not drawn),< 1000 nM
12,O=c1[nH][nH]c2cc(NCCCNc3cc(C4CC4)[nH]n3)ccc12,< 1000 nM
13,COc1ccc(-c2cc(Nc3cc(C)[nH]n3)nc(Sc3ccc4c(=O)[nH][nH]c4c3)n2)cc1,< 1000 nM
14,CN1CCN(c2cc(Nc3cc(C4CC4)[nH]n3)nc(Oc3ccc4c(=O)[nH][nH]c4c3)n2)CC1,< 1000 nM
15,Cc1cc(Nc2cc(COc3ccc4c(=O)[nH][nH]c4c3)nc3c2CCCCC3)n[nH]1,< 1000 nM
16,O=c1[nH][nH]c2cc(CC3COCC(Nc4cc(C5CC5)[nH]n4)C3)ccc12 (stereo not drawn),< 1000 nM
17,O=c1[nH][nH]c2cc(Sc3cccc(Nc4n[nH]c5ccccc45)n3)ccc12,< 1000 nM
18,O=c1[nH][nH]c2cc(NOCCNc3nccnn3)ccc12,< 1000 nM
19,O=c1[nH][nH]c2ccc(-c3cc(Nc4n[nH]c5cccnc45)c4ccccc4n3)cc12,< 1000 nM
20,Cc1cc(Nc2ccnc(Cc3ccc4c(=O)[nH][nH]c4c3)c2)n[nH]1,< 1000 nM
21,O=c1[nH][nH]c2cc(OCCONc3nccnn3)ccc12,< 1000 nM
22,CC(C)(c1ccc2c(=O)[nH][nH]c2c1)C1CCC(Nc2ccccn2)C1 (stereo not drawn),< 1000 nM
23,Cc1cc(Nc2cc(-c3ccccc3)[nH]n2)nc(COc2ccc3c(=O)[nH][nH]c3c2)n1,< 1000 nM

row,SMILES,Ki
1,O=c1[nH][nH]c2cc(Sc3nccc(Nc4cc(C5CC5)[nH]n4)n3)ccc12,< 1000 nM
2,O=c1[nH][nH]c2ccc(CNc3cc(Nc4cc(C5CC5)[nH]n4)c4ccccc4n3)cc12,< 1000 nM
3,Cc1cc(Nc2cc(Cc3ccc4c(=O)[nH][nH]c4c3)nc3ccccc23)n[nH]1,< 1000 nM
4,Nc1c(Nc2ccc3c(=O)[nH][nH]c3c2)ncnc1Nc1cc(C2CC2)[nH]n1,< 1000 nM
5,Cn1cnc(NC2CCC(Oc3ccc4c(=O)[nH][nH]c4c3)C2)c1 (stereo not drawn),< 1000 nM
6,Cc1cnc(NC2COCC(C(C)(C)c3ccc4c(=O)[nH][nH]c4c3)C2)s1 (stereo not drawn),< 1000 nM
7,O=C(CCNc1ccc2c(=O)[nH][nH]c2c1)Nc1nccnn1,< 1000 nM
8,O=C(CCNc1nccnn1)Nc1ccc2c(=O)[nH][nH]c2c1,< 1000 nM
9,O=c1[nH][nH]c2cc(NCCCNc3ccccn3)ccc12,< 1000 nM
10,Cc1cc(Nc2nc(-c3ccc4[nH][nH]c(=O)c4c3)nc3cnccc23)n[nH]1,< 1000 nM
11,CN1CCN(c2cccc3c(Nc4n[nH]c5c(F)cccc45)nc(-c4ccc5[nH][nH]c(=O)c5c4C(F)(F)F)nc23)CC1,< 1000 nM
12,Cc1cccc2c(Nc3cc(-c4ccco4)[nH]n3)nc(-c3ccc4[nH][nH]c(=O)c4c3OC(F)(F)F)nc12,< 1000 nM
13,N#Cc1c(-c2ncnc(Nc3n[nH]c4c3CCCC4)n2)ccc2[nH][nH]c(=O)c12,< 1000 nM
14,O=C(CCCc1ccc2c(=O)[nH][nH]c2c1)Nc1ccccn1,< 1000 nM
15,O=c1[nH][nH]c2cc(CC(CCNc3ccccn3)Cc3ccccc3)ccc12 (stereo not drawn),< 1000 nM
16,O=c1[nH][nH]c2cc(COc3cc(Nc4n[nH]c5ccccc45)c4ccccc4n3)ccc12,< 1000 nM
17,O=c1[nH][nH]c2cc(Oc3cc4ccccc4c(Nc4cc(C5CC5)[nH]n4)n3)ccc12,< 1000 nM
18,Cc1cnc(NC2CCCC(Sc3ccc4c(=O)[nH][nH]c4c3)C2)s1 (stereo not drawn),< 1000 nM
19,O=c1[nH][nH]c2cc(NCCONc3cc(C4CC4)[nH]n3)ccc12,< 1000 nM
20,Nc1ccc(Nc2ccc3c(=O)[nH][nH]c3c2)nc1Nc1cc(C2CC2)[nH]n1,< 1000 nM
21,Cc1cnc(Sc2ccc3c(=O)[nH][nH]c3c2)nc1Nc1cc(C2CC2)[nH]n1,< 1000 nM
